# Results published in ChEMBL document CHEMBL3399986, “Rapid 'one-pot' synthesis of a novel benzimidazole-5-carboxylate and its hydrazone derivatives as potential anti-inflammatory and antimicrobial agents” (Bioorg Med Chem Lett, 2015).
# Columns and labels:
# Type in all cases: functional
# Rattus norvegicus [1] = experiment: Antiinflammatory activity in rat assessed as inhibition of carrageenan-induced paw edema administered 30 mins prior to carrageenan challenge measured after 3 hrs relative to control
# Candida tropicalis [2] = experiment: Antifungal activity against Candida tropicalis MTCC 183 assessed as zone of inhibition at 5 mg/ml after 24 hrs by agar well diffusion method; details: MTCC 183, 24 h, read-out: IZ
# Staphylococcus aureus [3] = experiment: Antimicrobial activity against Staphylococcus aureus MTCC 3160 assessed as zone of inhibition at 5 mg/ml after 24 hrs by agar well diffusion method; details: MTCC 3160, 24 h, read-out: IZ
# Klebsiella pneumoniae [4] = experiment: Antimicrobial activity against Klebsiella pneumoniae MTCC 3384 after 24 hrs by broth dilution method; details: MTCC 3384, 24 h
# Bacillus subtilis [5] = experiment: Antimicrobial activity against Bacillus subtilis MTCC 441 after 24 hrs by broth dilution method; details: MTCC 441, 24 h
# Penicillium chrysogenum [6] = experiment: Antifungal activity against Penicillium notatum assessed as zone of inhibition at 5 mg/ml after 24 hrs by agar well diffusion method; details: read-out: IZ
# Rattus norvegicus [7] = experiment: Antiinflammatory activity in rat assessed as inhibition of carrageenan-induced paw edema administered 30 mins prior to carrageenan challenge measured after 1 hr relative to control
# Rattus norvegicus [8] = experiment: Antiinflammatory activity in rat assessed as inhibition of carrageenan-induced paw edema administered 30 mins prior to carrageenan challenge measured after 2 hrs relative to control
# Candida tropicalis [9] = experiment: Antifungal activity against Candida tropicalis MTCC 183 after 48 hrs by broth dilution method; details: MTCC 183, 48 h
# Klebsiella pneumoniae [10] = experiment: Antimicrobial activity against Klebsiella pneumoniae MTCC 3384 assessed as zone of inhibition at 5 mg/ml after 24 hrs by agar well diffusion method; details: MTCC 3384, 24 h, read-out: IZ
# Candida albicans [11] = experiment: Antifungal activity against Candida albicans MTCC 461 after 48 hrs by broth dilution method; details: MTCC 461, 48 h
# Penicillium chrysogenum [12] = experiment: Antifungal activity against Penicillium notatum after 48 hrs by broth dilution method
# Bacillus subtilis [13] = experiment: Antimicrobial activity against Bacillus subtilis MTCC 441 assessed as zone of inhibition at 5 mg/ml after 24 hrs by agar well diffusion method; details: MTCC 441, 24 h, read-out: IZ
# Aspergillus niger [14] = experiment: Antifungal activity against Aspergillus niger MTCC 282 assessed as zone of inhibition at 5 mg/ml after 24 hrs by agar well diffusion method; details: MTCC 282, 24 h, read-out: IZ
# Escherichia coli [15] = experiment: Antimicrobial activity against Escherichia coli MTCC 4351 after 24 hrs by broth dilution method; details: MTCC 4351, 24 h
# Candida albicans [16] = experiment: Antifungal activity against Candida albicans MTCC 461 assessed as zone of inhibition at 5 mg/ml after 24 hrs by agar well diffusion method; details: MTCC 461, 24 h, read-out: IZ
# Staphylococcus aureus [17] = experiment: Antimicrobial activity against Staphylococcus aureus MTCC 3160 after 24 hrs by broth dilution method; details: MTCC 3160, 24 h
# Escherichia coli [18] = experiment: Antimicrobial activity against Escherichia coli MTCC 4351 assessed as zone of inhibition at 5 mg/ml after 24 hrs by agar well diffusion method; details: MTCC 4351, 24 h, read-out: IZ
# Aspergillus niger [19] = experiment: Antifungal activity against Aspergillus niger MTCC 282 after 48 hrs by broth dilution method; details: MTCC 282, 48 h
SMILES,inhibition (INH) (Rattus norvegicus [1]),zone of inhibition at 5000 µg/mL (Candida tropicalis [2]),zone of inhibition at 5000 µg/mL (Staphylococcus aureus [3]),MIC (Klebsiella pneumoniae [4]),MIC (Bacillus subtilis [5]),zone of inhibition at 5000 µg/mL (Penicillium chrysogenum [6]),inhibition (INH) (Rattus norvegicus [7]),inhibition (INH) (Rattus norvegicus [8]),MIC (Candida tropicalis [9]),zone of inhibition at 5000 µg/mL (Klebsiella pneumoniae [10]),MIC (Candida albicans [11]),MIC (Penicillium chrysogenum [12]),zone of inhibition at 5000 µg/mL (Bacillus subtilis [13]),zone of inhibition at 5000 µg/mL (Aspergillus niger [14]),MIC (Escherichia coli [15]),zone of inhibition at 5000 µg/mL (Candida albicans [16]),MIC (Staphylococcus aureus [17]),zone of inhibition at 5000 µg/mL (Escherichia coli [18]),MIC (Aspergillus niger [19])
CCCn1c(-c2ccc(Cl)cc2Cl)nc2cc(C(=O)N/N=C/c3ccc(C)cc3)ccc21,47.73%,18 mm,20 mm,6.25 µg/mL,12.5 µg/mL,17 mm,49.25%,52.72%,6.25 µg/mL,18 mm,12.5 µg/mL,6.25 µg/mL,17 mm,22 mm,12.5 µg/mL,16 mm,6.25 µg/mL,18 mm,3.12 µg/mL
CCCn1c(-c2ccc(Cl)cc2Cl)nc2cc(C(=O)N/N=C/c3ccc(N(C)C)cc3)ccc21,50.94%,16 mm,17 mm,25 µg/mL,6.25 µg/mL,13 mm,55%,53.84%,25 µg/mL,16 mm,12.5 µg/mL,50 µg/mL,19 mm,16 mm,25 µg/mL,16 mm,12.5 µg/mL,15 mm,25 µg/mL
CCCn1c(-c2ccc(Cl)cc2Cl)nc2cc(C(=O)N/N=C/c3ccc(OC)cc3)ccc21,64.67%,16 mm,17 mm,50 µg/mL,50 µg/mL,12 mm,51.11%,62.23%,25 µg/mL,14 mm,25 µg/mL,50 µg/mL,10 mm,18 mm,12.5 µg/mL,15 mm,12.5 µg/mL,17 mm,12.5 µg/mL
CCCn1c(-c2ccc(Cl)cc2Cl)nc2cc(C(=O)N/N=C/c3ccccc3[N+](=O)[O-])ccc21,47.44%,16 mm,15 mm,25 µg/mL,25 µg/mL,12 mm,46.66%,51.74%,25 µg/mL,17 mm,50 µg/mL,50 µg/mL,16 mm,18 mm,12.5 µg/mL,14 mm,25 µg/mL,17 mm,12.5 µg/mL
CCCn1c(-c2ccc(Cl)cc2Cl)nc2cc(C(=O)N/N=C/c3cccc([N+](=O)[O-])c3)ccc21,42.91%,20 mm,17 mm,12.5 µg/mL,12.5 µg/mL,15 mm,52.22%,53.14%,3.12 µg/mL,18 mm,6.25 µg/mL,12.5 µg/mL,17 mm,20 mm,25 µg/mL,17 mm,12.5 µg/mL,15 mm,6.25 µg/mL
CCCn1c(-c2ccc(Cl)cc2Cl)nc2cc(C(=O)N/N=C/c3ccc([N+](=O)[O-])cc3)ccc21,46.27%,16 mm,17 mm,25 µg/mL,25 µg/mL,13 mm,50%,50.2%,12.5 µg/mL,17 mm,50 µg/mL,25 µg/mL,16 mm,20 mm,12.5 µg/mL,13 mm,12.5 µg/mL,18 mm,6.25 µg/mL
CCCn1c(-c2ccc(Cl)cc2Cl)nc2cc(C(=O)N/N=C/c3cccc(Cl)c3Cl)ccc21,45.1%,16 mm,17 mm,12.5 µg/mL,25 µg/mL,12 mm,53.14%,49.65%,25 µg/mL,18 mm,12.5 µg/mL,50 µg/mL,15 mm,20 mm,12.5 µg/mL,16 mm,12.5 µg/mL,18 mm,6.25 µg/mL
CCCn1c(-c2ccc(Cl)cc2Cl)nc2cc(C(=O)N/N=C/c3ccc(Cl)cc3Cl)ccc21,38.39%,16 mm,15 mm,50 µg/mL,25 µg/mL,12 mm,51.29%,63.63%,12.5 µg/mL,15 mm,25 µg/mL,50 µg/mL,15 mm,18 mm,50 µg/mL,15 mm,25 µg/mL,12 mm,25 µg/mL
CCCn1c(-c2ccc(Cl)cc2Cl)nc2cc(C(=O)N/N=C/c3cc(C)c(O)c(C)c3)ccc21,43.06%,16 mm,17 mm,25 µg/mL,12.5 µg/mL,15 mm,51.11%,50.48%,12.5 µg/mL,17 mm,50 µg/mL,25 µg/mL,17 mm,20 mm,6.25 µg/mL,14 mm,12.5 µg/mL,20 mm,6.25 µg/mL
CCCn1c(-c2ccc(Cl)cc2Cl)nc2cc(C(=O)N/N=C/c3ccccc3)ccc21,47.15%,12 mm,12 mm,50 µg/mL,25 µg/mL,16 mm,56.85%,54.12%,50 µg/mL,12 mm,50 µg/mL,25 µg/mL,15 mm,19 mm,12.5 µg/mL,12 mm,50 µg/mL,18 mm,25 µg/mL
CC1(C)S[C@@H]2[C@H](NC(=O)[C@H](N)c3ccccc3)C(=O)N2[C@H]1C(=O)O [AMPICILLIN],–,–,26 mm,3.12 µg/mL,1.56 µg/mL,–,–,–,–,23 mm,–,–,24 mm,–,1.56 µg/mL,–,1.56 µg/mL,25 mm,–
O=C([O-])Cc1ccccc1Nc1c(Cl)cccc1Cl.[Na+] [DICLOFENAC SODIUM],74.74%,–,–,–,–,–,62.96%,73.28%,–,–,–,–,–,–,–,–,–,–,–
OC(Cn1cncn1)(Cn1cncn1)c1ccc(F)cc1F [FLUCONAZOLE],–,24 mm,–,–,–,22 mm,–,–,1.56 µg/mL,–,1.56 µg/mL,3.12 µg/mL,–,24 mm,–,23 mm,–,–,1.56 µg/mL
COc1ccc2c(c1)c(CC(=O)O)c(C)n2C(=O)c1ccc(Cl)cc1 [INDOMETHACIN],69.34%,–,–,–,–,–,55.55%,68.11%,–,–,–,–,–,–,–,–,–,–,–
